Data published in patent publication EP4778516A1, “CALCIFICATION ENHANCER FOR OSTEOBLAST MC3T3-E1 CELL” (Watanabe Oyster Laboratory Co., Ltd., priority 2023, dated 2025).

Assays:
[1] = tested on: MC3T3-E1 cells; assay: Effects of conditioned medium of LPS-stimulated RAW264.7 cells on MC3T3-E1 cells; format: cell-based, mouse; settings: Bay 11-7082 1 or 10 nM, conditioned medium 0.5 ml per well
Method: A conditioned medium was obtained by culturing RAW264.7 cells.
RAW264.7 cells (1×10^5 cells/ml per well in a 24-well plate) were cultured for 3 days after reaching subconfluence in DMEM containing 10% FBS and 1% P/S in the presence or absence of LPS (concentration in the medium: 100 ng/ml). After the cells were cultured, the medium (conditioned medium) was collected.
To evaluate the effects of the conditioned medium on proliferation of MC3T3-E1 cells, MC3T3-E1 cells were cultured for 3 days in a-MEM containing 10% FBS and 1% P/S. The cells were then cultured for 3 days using either the conditioned medium (1 ml, control) cultured without LPS or the conditioned medium (0.25 or 0.50 ml per well, adjusted to 1 ml with normal medium) cultured with LPS in the presence or absence of DHMBA (1 or 10 mM).
Further, to examine the effects on cell death of MC3T3-E1 cells, the cells (1×10^5 cells/ml per well) were cultured for 3 days in a-MEM containing 10% FBS and 1% P/S. After reaching subconfluence, the medium was replaced. The cells were then further cultured for 48 hours in either the normal medium, the conditioned medium (1 ml) cultured without LPS, or the conditioned medium (0.25 or 0.50 ml per well, adjusted to 1 ml with normal medium) with either a reagent vehicle (1% ethanol as final concentration) or DHMBA (1 or 10 mM). After culture, the cells were detached from each culture well, and cell numbers were counted in the same manner as described above.
Further, the effects of Bay 11-7082, which is an NF-kB signaling inhibitor, on proliferation or cell death of MC3T3-E1 cells were investigated. First, to examine the effects of Bay 11-7082 on proliferation of MC3T3-E1 cells, the cells (1×10^5 cells/1 ml per well in a 24-well plate) were cultured for 3 days until reaching subconfluence in the presence of 10% FBS, 1% P/S, and either a reagent vehicle (1% ethanol as final concentration) or Bay 11-7082 (1, 10, 50, 100, or 1000 nM). Next, MC3T3-E1 cells were cultured for 3 days in the presence of the conditioned medium (0.5 ml per well, adjusted to a total of 1 ml with normal medium) with or without Bay 11-7082 (1 or 10 nM) in the presence or absence of DHMBA (10 mM).
In another experiment, to evaluate the effects of Bay 11-7082 on cell death of MC3T3-E1, the cells (1×10^5 cells/1 ml per well in a 24-well plate) were cultured in a-MEM containing 10% FBS and 1% P/S. After culturing for 3 days until reaching subconfluence, the medium was replaced with a-MEM (1 ml) containing either the normal medium or the conditioned medium prepared by adding the normal medium to 0.5 ml per well of the conditioned medium, adjusted to a total volume of 1 ml. The cells were then further cultured for 48 hours in the presence of Bay 11-7082 (1 or 10 nM), or Bay 11-7082 (10 nM) in combination with DHMBA (10 mM). After culture, the cells were detached from each culture well, and cell numbers were counted as described above.

[2] = tested on: MC3T3-E1 cells; assay: Cell proliferation assay (cell counting); format: cell-based, mouse; settings: Bay 11-7082 1, 10, or 50 nM, 3 days; Fig. 7B
Method: To examine progression of cell proliferation, MC3T3-E1 cells (1×10^5/ml medium per well) were cultured using a 24-well plate in a-MEM supplemented with 10% FBS and 1% P/S at 37°C in a water-saturated atmosphere containing 5% CO2 and 95% air. The cells were cultured for 1, 2, 3, 4, or 5 days in the presence of a vehicle (1% ethanol as final concentration) or DHMBA (10 mM). In another experiment, to evaluate the effects of increased concentrations of DHMBA on MC3T3-E1 cells, the cells (1×10^5/ml per well) were cultured using a 24-well plate in DMEM (containing 10% FBS and 1% P/S). The cells were cultured for 3 days in the presence of either a reagent vehicle (1% ethanol as final concentration) or DHMBA (0.1, 1, 10, 100, or 1000 mM).
To evaluate the effects of DHMBA on cell death of osteoblasts MC3T3-E1, the cells (1×10^5/ml medium per well in a 24-well plate) were cultured in a-MEM containing 10% FBS and 1% P/S. After culturing for 3 days until reaching subconfluence, either a reagent vehicle (1% ethanol as final concentration) or DHMBA (0.1, 1, 10, 100, or 1000 mM) was added, and the cells were further cultured for 48 hours. After culture, to count the number of cells attached to each well, a […] containing 0.05% trypsin and EDTA (0.1 ml per well) was added, and then the culture plates were incubated at 37°C for 2 minutes. Subsequently, a-MEM (0.9 ml) containing 10% FBS and 1% P/S was added, and the cells were detached and mixed by pipetting. The cell suspension (0.1 ml) was mixed with 0.1 ml of 0.5% trypan blue staining solution. By this staining, […]. Viable cells were counted under a microscope (Olympus MTV-3) using a hemocytometer (Sigma-Aldrich, St. Louis, MO) and a cell counter (H-102P, Line Seiki Co., Ltd., Tokyo, Japan), and the average of two counts was calculated. Cell numbers were expressed as the number per well.

For `Cc1ccc(S(=O)(=O)/C=C/C#N)cc1` [Bay 11-7082, reference compound], the “effects of the conditioned medium on enhancement of cell death of MC3T3-E1 cells” value ([1]; 48 hours, Fig. 7D) was “suppressed”, the “effects of the conditioned medium on inhibition of proliferation of MC3T3-E1 cells” value ([1]; 3 days, Fig. 7C) was “suppressed” and the “number of MC3T3-E1 cells” value [2] was “did not cause a significant reduction”.
